How the values were obtained:
[1] = target: T1, unphosphorylated T315I Abl kinase domain (Mus musculus, UniProt P00520, T315I); experiment: c-Abl T315I 0P bioassay (pyruvate kinase/lactate dehydrogenase coupled enzyme assay); format: biochemical; conditions: zero phosphorylation state (0P), 10 μM ATP, read-out: AbI T315I 0P IC50
T1 construct: purified and unphosphorylated T315I Abl kinase domain; made in house; host or cells: E. coli BL21(DE3) (Codon+RIL or pSA0145 strain)
T1 sequence (P00520 242-493 T315I limits assumed): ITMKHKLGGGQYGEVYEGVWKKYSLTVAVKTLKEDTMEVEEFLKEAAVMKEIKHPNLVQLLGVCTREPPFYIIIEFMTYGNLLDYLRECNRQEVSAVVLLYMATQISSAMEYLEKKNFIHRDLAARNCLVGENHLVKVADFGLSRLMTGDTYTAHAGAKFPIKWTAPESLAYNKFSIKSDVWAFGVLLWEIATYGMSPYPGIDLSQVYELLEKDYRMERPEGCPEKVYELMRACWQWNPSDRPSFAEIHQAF
Text: Although the first of these examples uses the kinase domain of a mutant form of Abl T315I (“Abl T315I KD”), the kinase assays may use various forms of mutant and wild type enzymes, including, for example, the entire protein, the kinase domain, or a portion thereof (e.g. Abl Y393F). The kinases used in the assays may also be of varying phosphorylation states. In the c-Abl example, a mutant kinase at a zero phosphorylation state was used. c-Abl Pyruvate Kinase/Lactate Dehydrogenase Coupled Enzyme Assay
In the c-Abl Pyruvate Kinase (PK)/Lactate Dehydrogenase (LDH) Coupled Assay the protein kinase dependant phosphorylation of a substrate peptide was coupled to the oxidation of NADH. The oxidation of NADH to NAD+ was detected by monitoring a decrease in absorbance at 340 nm.
Materials: Abl substrate peptide=EAIYAAPFAKKK (SEQ ID NO: 1)—OH (Biopeptide, San Diego, Calif.); pNADH (Sigma Cat#N-8129, FW=709.4); 2M MgC12; 1M HEPES buffer, pH 7.5; Phosphoenolpyruvate (PEP) (Sigma Cat#P-7002, FW=234); Lactate dehydrogenase (LDH) (Worthington Biochemical Cat#2756); Pyruvate Kinase (PK) (Sigma Cat#P-9136); ATP (Sigma Cat#A-3377, FW=551); Greiner 384-well UV star plate; and purified and unphosphorylated T315I Abl kinase domain.
Stock Solutions: 10 mM NADH (7.09 mg/ml in miliQH2O) made fresh daily; 10 mM Abl substrate peptide (13.4 mg/ml in miliQH2O) stored at −20° C.; 100 mM HEPES buffer, pH 7.5 (5 ml 1M stock+45 ml miliQH2O); 100 mM MgCl2 (5 ml 2M MgCl2+95 ml dH2O); 100 MM PEP (23.4 mg/ml in dH2O) stored at −20° C.; 10 mM ATP (5.51 mg/ml in dH2O) stored at −20° C. (diluted 50 μl into total of 10 ml miliQH2O daily=50 μM ATP working stock); 1000 U/ml PK (U/mg varies with lot) flash-frozen under liquid N2 and stored at −80° C.; and 1000 U/ml LDH (U/mg varies with lot) flash-frozen under liquid N2 and stored at −80° C.
Standard Assay Setup for 384-well format (50 μl reaction): 300 μM NADH; 10 mM MgCl2; 2 mM PEP; 45U/ml PK; 60 U/ml LDH; 200 μM Abl substrate peptide; 2.5 μl test compound (in DMSO); 2 μg/ml Abl kinase domain; 10 μM ATP; 100 mM HEPES buffer. Positive controls contained DMSO with no test compound. Negative controls contained 5 μl of 0.5M EDTA (50 mM in the assay). The dephosphorylated form of the c-Abl T315I mutant was used in the biochemical screening assays. The kinase reaction was initiated at time t=0 by the addition of ATP.
Activity was measured by following the time-dependent loss of NADH by absorbance spectroscopy at 340 nm. The linear portion of the resulting progress curve was then analyzed by linear regression to get the activity in absorbance units/time, reported as the slope of that best fit line (moles/unit time can be calculated from using molar extinction coefficient for NADH at 340 nm, 6250M^−1 cm^−1).
Data was evaluated using the equation: Z′=1−[3*(σ++σ−)/|μ+−μ−|](Zhang, et al., 1999 J Biomol Screening 4(2) 67-73), where μ denotes the mean and σ the standard deviation. The subscript designates positive or negative controls. The Z′ score for a robust screening assay should be ≧0.50. The typical threshold=μ+−3*σ+. Any value that falls below the threshold was designated a “hit”.
Dose response was analyzed using the equation: y=min+{(max−min)/(1+10^[compound]−logIC50)}, where y is the observed initial slope, max=the slope in the absence of inhibitor, min=the slope at infinite inhibitor, and the IC50 is the [compound] that corresponds to ½ the total observed amplitude (Amplitude=max−min).
To measure modulation, activation, or inhibition of Abl KD, a test compound was added to the assay at a range of concentrations. Inhibitors may inhibit Abl KD activity at an IC50 in the micromolar range, the nanomolar range, or, for example, in the subnanomolar range.
An open-reading frame for c-Abl was amplified from a Mus musculus (mouse) cDNA library prepared from freshly harvested mouse liver using a commercially available kit (invitrogen) by PCR using the following primers: […]
The c-Abl T315I KD (kinase domain) was purified as follows. […]

Ba/F3 cells, ABL1 WT = Ba/F3 cells, ABL1 WT (Homo sapiens, UniProt P00519); experiment: 96-well XTT cell survival assay, Ba/F3 ABL1 WT; format: cell-based; conditions: 72 hours, read-out: ABL1 WT XTT [Ba/F3] IC50
Protocol: (§1) MV4-11 and THP cells were maintained in Iscove's Modified Dulbecco's Medium supplemented with 10% fetal bovine serum (FBS) and penicillin/streptomycin, Ba/F3 cells were maintained in RPMI 1640 supplemented with 10% FBS, penicillin/streptomycin and 5 ng/ml recombinant mouse IL-3.
(§2) Compounds were tested in the following assays in duplicate.
(§3) 96-well XTT assay: Cells (e.g. BaF3 315I, M351I, or E255K cells) were grown in growth media containing various concentrations of compounds (duplicates) on a 96-well plate for 72 hours at 37° C. The starting cell number was 5000-8000 cells per well and volume was 120 μl. At the end of the 72-hour incubation, 40 μl of XTT labeling mixture (50:1 solution of sodium 3′-[1-(phenylamino-carbonyl)-3,4-tetrazolium]-bis(4-methoxy-6-nitro)benzene sulfonic acid hydrate and Electron-coupling reagent: PMS (N-methyl dibenzopyrazine methyl sulfate) were added to each well of the plate. After an additional 2-6 hours of incubation at 37° C., the absorbance reading at 405 nm with background correction at 650 nm was measured with a spectrophotometer.

Ba/F3 cells, ABL1 T315I = Ba/F3 cells, ABL1 T315I (Homo sapiens, UniProt P00519, T315I, cells depend on it); experiment: 96-well XTT cell survival assay, Ba/F3 ABL1 T315I; format: cell-based; conditions: 72 hours, read-out: ABL1 T315I XTT [Ba/F3] IC50
Protocol: as §1, §2, §3

Structure (SMILES) | IC50 [1] [nM] | GI50 (Ba/F3 cells, ABL1 WT) [nM] | GI50 (Ba/F3 cells, ABL1 T315I) [nM]
COc1ccccc1-c1c[nH]c2ncc(-c3cccc(C(O)C(=O)N(C)C)n3)cc12 (stereo not shown) | < 50 | > 1000 | > 1000
COc1ccccc1-c1n[nH]c2ncc(-c3cccc(C(O)C(=O)N(C)C)n3)cc12 (stereo not shown) | < 50 | > 1000 | > 1000
CN(C)C(=O)C(O)c1cncc(-c2cnc3[nH]cc(-c4ccncc4)c3c2)c1 (stereo not shown) | 50 to 500 | > 1000 | > 1000
COc1ccccc1-c1c[nH]c2ncc(-c3cccc(C(O)C(=O)N(C)Cc4ccnn4C)c3)cc12 (stereo not shown) | < 50 | < 1000 | < 1000
CN(C)C(=O)C(O)c1cncc(-c2cnc3[nH]cc(-c4ccccc4F)c3c2)c1 (stereo not shown) | < 50 | < 1000 | < 1000
CN(C)C(=O)C(O)c1cncc(-c2cnc3[nH]cc(-c4ccc5c(c4)OCO5)c3c2)c1 (stereo not shown) | < 50 | < 1000 | > 1000
CN(C)C(=O)C(O)c1cncc(-c2cnc3[nH]cc(-c4cccc(Cl)c4)c3c2)c1 (stereo not shown) [drawing 459] | < 50 | < 1000 | 
COc1ccccc1-c1n[nH]c2ncc(-c3cccc(C(C(=O)N(C)C(C)C)N(C)C)c3)cc12 (stereo not shown) | 50 to 500 |  | 
COc1ccccc1-c1n[nH]c2ncc(-c3cccc([C@@H]4OCO[C@H]4C(C)C)c3)cc12 | < 50 |  | 
COc1ccccc1-c1c[nH]c2ncc(-c3cncc(C(O)C(=O)N(C)C)n3)cc12 (stereo not shown) | > 500 |  | 
CN(C)C(=O)C(=O)c1cncc(-c2cnc3[nH]cc(-c4ccnn4C)c3c2)c1 | > 500 |  | 
CN(C)C(=O)C(O)c1cncc(-c2cnc3[nH]cc(-c4cccc(C#N)c4)c3c2)c1 (stereo not shown) | 50 to 500 |  | 
COc1ccccc1-c1n[nH]c2ncc(-c3cccc(C(C(=O)N(C)C)N(C)C)c3)cc12 (stereo not shown) | 50 to 500 |  | 
COc1ccccc1-c1c[nH]c2ncc(-c3cccc(C(CC(=O)N(C)C)N4CCS(=O)(=O)CC4)c3)cc12 (stereo not shown) | > 500 |  | 
CN(C)C(=O)C(O)c1cncc(-c2cnc3[nH]cc(-c4ncco4)c3c2)c1 (stereo not shown) | 50 to 500 |  | 
CC(=O)Nc1ccc(-c2c[nH]c3ncc(-c4cncc(C(O)C(=O)N(C)C)c4)cc23)cc1 (stereo not shown) | < 50 |  | > 1000
COc1ccccc1-c1n[nH]c2ncc(-c3cccc(C(O)CN)c3)cc12 (stereo not shown) | < 50 |  | 
COc1ccccc1-c1c[nH]c2ncc(-c3cccc(C(CC(=O)N(C)CCN(C)C)N4CCS(=O)(=O)CC4)c3)cc12 (stereo not shown) | > 500 |  | 
CN(C)C(=O)C(O)c1cncc(-c2cnc3[nH]cc(-c4cc(C(F)(F)F)nn4C)c3c2)c1 (stereo not shown) | > 500 |  | 
COc1ccccc1-c1n[nH]c2ncc(-c3cccc(C(C(=O)N4CCC(O)C4)N(C)C)c3)cc12 (stereo not shown) | 50 to 500 |  | 
